Measurements as given in US20260232851A1, “METHODS FOR THE DETECTION AND DIAGNOSIS OF CANCERS ASSOCIATED WITH OVEREXPRESSION OF PSMA RECEPTOR” (CLARITY PHARMACEUTICALS LIMITED, priority 2023, published 2026).

Tests used:
PSMA receptor = target: T1, PSMA receptor (Homo sapiens, UniProt Q04609); assay: Same-day (Day 0) versus next-day (Day 1) PET imaging of patients; format: in vivo; conditions: ^18F-labelled ligand as SOC
T1 construct: localises at sites that overexpress the PSMA receptor and are indicative of a cancer; from tissue; host or cells: Primary prostate cancer and metastatic lesions (lymph node, bone, prostatic bed) in living patients

LNCap tumor = conditions: mouse, in vivo
Excerpt: Ex vivo tumor uptake expressed as percentage injected activitiy per gram of tissue (% lAg) (mean±/−SEM, n=3/group) in LNCap tumor bearing NSG mice following injection of either monomeric [^64Cu]Cu-SarPSMA (2 MBq, 0.9 nmol of peptide) or dimeric [^64Cu]Cu-Sar-bisPSMA (2 MBq, 0.2 nmol of peptide).

T1 sequence (Q04609 whole entry): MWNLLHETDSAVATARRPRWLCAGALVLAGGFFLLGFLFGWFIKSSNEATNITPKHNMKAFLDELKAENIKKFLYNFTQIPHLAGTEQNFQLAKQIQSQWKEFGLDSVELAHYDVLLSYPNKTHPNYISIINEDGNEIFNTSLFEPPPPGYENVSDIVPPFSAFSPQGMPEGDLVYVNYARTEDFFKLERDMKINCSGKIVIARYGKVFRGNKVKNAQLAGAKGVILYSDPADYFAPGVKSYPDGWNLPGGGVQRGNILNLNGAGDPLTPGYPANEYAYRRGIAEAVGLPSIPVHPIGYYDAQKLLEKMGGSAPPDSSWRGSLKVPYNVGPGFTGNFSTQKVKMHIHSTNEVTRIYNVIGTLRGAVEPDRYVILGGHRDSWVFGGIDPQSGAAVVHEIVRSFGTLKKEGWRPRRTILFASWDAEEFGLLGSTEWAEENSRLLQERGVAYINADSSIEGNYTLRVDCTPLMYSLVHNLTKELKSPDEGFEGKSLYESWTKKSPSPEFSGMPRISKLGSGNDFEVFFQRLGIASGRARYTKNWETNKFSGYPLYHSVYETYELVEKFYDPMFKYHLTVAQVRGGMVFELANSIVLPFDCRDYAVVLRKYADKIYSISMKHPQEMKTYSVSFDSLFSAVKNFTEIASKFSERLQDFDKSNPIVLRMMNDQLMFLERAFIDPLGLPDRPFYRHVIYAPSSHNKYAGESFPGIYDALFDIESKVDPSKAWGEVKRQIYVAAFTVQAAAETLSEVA

Compound | Screening result on SOC PET/CT (FIG. 9A) (PSMA receptor) | Uptake and retention at tumors, dimer versus monomer (FIG. 1) (LNCap tumor)
O=C(O)CC[C@H](NC(=O)N[C@@H](CCCCNC(=O)c1ccc([18F])nc1)C(=O)O)C(=O)O [^18F-DCFPyL, DCFPyL, reference compound] | negative/equivocal | 
CC12CNCCNCC(NC(=O)CCCC(=O)N[C@H](Cc3ccccc3)C(=O)N[C@H](Cc3ccccc3)C(=O)NCCCCCCCC(=O)NCCCC[C@H](NC(=O)N[C@@H](CCC(=O)O)C(=O)O)C(=O)O)(CNCCNC1)CNCCNC2 [^64Cu-SarPSMA, metal not drawn] |  | less uptake and retention
